Laboratory results taken from patent publication US20110053901A1, “ACETYL MIMIC COMPOUNDS FOR THE INHIBITION OF ISOPRENYL-S-CYSTEINYL METHYLTRANSFERASE” (SIGNUM BIOSCIENCES, INC., priority 2008, published 2011).

Legend:
TPA-treated ears of mice [1] = experiment: Mouse ear model of TPA-induced contact inflammation: edema inhibition (ear thickness); format: in vivo; details: topical on TPA-treated mouse ear, 24 hours; for inhibition in vivo at 0.2 mg: dose 0.2 mg/20 μL; for inhibition in vivo at 0.8 mg: dose 0.8 mg/20 μL
From the text: (§1) G. et al., Anti-inflammatory Drugs, Clin. Pharmacol. Ther. 16, 900-4 (1974); Young et al., Tachyphylaxis in 12-Otetradecanoylphorbolacetate-and Arachidonic Acid-Induced Ear Edema; J. Invest. Dermatol. 80:48-52, (1983); Tramposch et al., In Vivo Models of Inflammation, (Morgan D W, Marshall L A eds), Birkha{umlaut over ( )}user Verlag: Basel, pp 179-204, 1999; and Gordon et al., Topical N-Acetyl-S-Farnesyl-L-Cysteine Inhibits Mouse Skin Inflammation, and Unlike Dexamethasone, Its Effects Are Restricted to the Application Site, J. Invest. Dermatol., 128(3):643-54, 2008 March)]. Moreover, the mouse ear model has been used by various groups to identify and compare members of differing classes of anti-inflammatory agents with multiple mechanisms of action (reviewed in Tramposch et al., 1999, supra).
The protocol for inducing in vivo acute contact inflammation on the ears of live mice has been described elsewhere (reviewed in Tramposch, 1999, supra). In brief, mice were sedated and their ears were treated with 1.2 μg/20 uL TPA (i.e., tetradecanoylphorbol-13-acetate). […] After 24 hours, the mice were sacrificed and edema was measured by taking micrometer readings of each ear. The percent inhibition of edema was determined by taking the average ear thickness of compound-treated ears and dividing it by the average thickness of 12 ears that only received TPA and subtracting that value from 100%. These values were corrected for the thickness of normal, non TPA-treated mouse ears of littermate controls. […] ED50 values were calculated as described in Gordon et al., “Topical N-acetyl-S-farnesyl-L-cysteine Inhibits Mouse Skin Inflammation, and Unlike Dexamethasone, its Effects Are Restricted to the Application Site”, J. Invest. Derm., Vol. 128 pp. 643-654 (2008).

[2] = tested on: myeloperoxidase (MPO), neutrophil marker in TPA-treated ears; experiment: Mouse ear model of TPA-induced contact inflammation: MPO inhibition (dermal neutrophil infiltration); format: in vivo; details: topical on TPA-treated mouse ear, 6 mm biopsy punches; for inhibition in vivo at 0.2 mg: dose 0.2 mg/20 μL; for inhibition in vivo at 0.8 mg: dose 0.8 mg/20 μL
From the text: as §1
To assay for inhibition of dermal neutrophil infiltration by S-isoprenyl and S-farnesyl cysteine compounds, a standard method was used (see Bradley et al., 1982, supra; Young et al., 1983, supra; De Young et al, “Edema and Cell Infiltration in the Phorbol Ester-treated Mouse Ear are Temporally Separate and can be Differentially Modulated by Pharmacologic Agents”, Agents Actions, 26(3-4): 335-41 (March 1989); and Rao et al. (1993) Comparative Evaluation of Arachidonic Acid (AA)-and Tetradecanoylphorbol Acetate (TPA)-Induced Dermal Inflammation, Inflammation 17:723-41). Briefly, we homogenized 6 mm biopsy punches taken from both compound-treated ears as well as TPA-treated and non-treated control groups. We quantitated the levels of MPO by a colorimetric reaction that was measured spectrophotometrically. The percent inhibition of neutrophil infiltration by each S-isoprenyl and S-farnesyl cysteine compound was determined by comparing the average MPO levels in the presence and absence of these compounds. The calculation for percent inhibition of MPO was determined similar to that as described for calculating the percent edema inhibition, see the Edema Inhibition protocol, supra. […] Gordon et al., “Topical N-acetyl-S-farnesyl-L-cysteine Inhibits Mouse Skin Inflammation, and Unlike Dexamethasone, its Effects Are Restricted to the Application Site”, J. Invest. Derm., Vol. 128 pp. 643-654 (2008).

dermal inflammation = details: mice; cited from earlier work
[3] = target: membrane-associated isoprenyl-S-cysteinyl methyltransferase (Homo sapiens, UniProt O60725); details: cited from earlier work
membrane-associated isoprenyl-S-cysteinyl methyltransferase, sequence (O60725 whole entry): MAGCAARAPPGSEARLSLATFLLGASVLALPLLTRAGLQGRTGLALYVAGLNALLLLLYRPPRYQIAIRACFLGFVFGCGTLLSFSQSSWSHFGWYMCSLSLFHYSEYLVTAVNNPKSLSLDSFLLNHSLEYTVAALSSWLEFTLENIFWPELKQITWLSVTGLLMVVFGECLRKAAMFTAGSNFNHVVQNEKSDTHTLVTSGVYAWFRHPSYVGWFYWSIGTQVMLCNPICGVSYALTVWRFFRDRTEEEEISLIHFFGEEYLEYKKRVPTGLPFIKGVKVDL

TPA-treated ears of mice [4] = experiment: Mouse ear model of TPA-induced contact inflammation: erythema inhibition (Δa* redness, chroma meter); format: in vivo; details: dose 0.2 mg/20 μL, topical on TPA-treated mouse ear, 24 hours post treatment
From the text: as §1
Another well documented biomarker of skin inflammation is skin redness, termed erythema, which is caused by capillary congestion and dilation in response to various chemical and environmental insults (see Denig, N. I. et al., Irritant Contact Dermatitis. Clues to Causes, Clinical Characteristics, and Control, Postgrad Med., May (1998); 103(5):199-200, 207-8, 212-3). […]

**Q.** Which results are given for `CC(C)=CCC/C(C)=C/CC/C(C)=C/CSC[C@H](Nc1ccnc(N)n1)C(=O)O` [Compound H]?
**A.** inhibition in vivo at 0.2 mg (TPA-treated ears of mice [1]): 39.7 ± 1.67%; inhibition in vivo at 0.8 mg (TPA-treated ears of mice [1]): 50.1%; inhibition in vivo at 0.2 mg [2]: 63.5 ± 7.03%; inhibition in vivo at 0.8 mg [2]: 89%

**Q.** With `CC(C)=CCC/C(C)=C/CC/C(C)=C/CSC[C@H](NC(=O)N(c1ccccc1)c1ccccc1)C(=O)O` [Compound F] as the compound, how does the inhibition in vivo at 0.8 mg (TPA-treated ears of mice [1]) read?
**A.** Its inhibition in vivo at 0.8 mg is 4.66%.

**Q.** And the inhibition in vivo at 0.8 mg [2]?
**A.** The inhibition in vivo at 0.8 mg was 79.5%.

**Q.** Which results are given for `CC(C)=CCC/C(C)=C/CC/C(C)=C/CSC[C@H](NC(=O)Nc1ccccc1)C(=O)O` [Compound E]?
**A.** inhibition in vivo at 0.8 mg (TPA-treated ears of mice [1]): 18.2%; inhibition in vivo at 0.8 mg [2]: 75.4%

**Q.** What does the source list for `CC(C)=CCC/C(C)=C/CC/C(C)=C/CSC[C@H](NC(=O)N1CCCCC1)C(=O)O` [Compound D]?
**A.** inhibition in vivo at 0.8 mg (TPA-treated ears of mice [1]): 32.6%; inhibition in vivo at 0.8 mg [2]: 83.7%

**Q.** Which inhibition in vivo at 0.8 mg (TPA-treated ears of mice [1]) does the source give for `CC(C)=CCC/C(C)=C/CC/C(C)=C/CSC[C@H](NC(=O)N1CCOCC1)C(=O)O` [Compound C] here?
**A.** The inhibition in vivo at 0.8 mg was 34.1%.

**Q.** And the inhibition in vivo at 0.8 mg [2]?
**A.** The inhibition in vivo at 0.8 mg was 61.8%.

**Q.** Which inhibition in vivo at 0.2 mg (TPA-treated ears of mice [1]) does the source give for `CC(C)=CCC/C(C)=C/CC/C(C)=C/CSC[C@H](Nc1ccnc(NN)n1)C(=O)O` [Compound I] here?
**A.** Its inhibition in vivo at 0.2 mg is 24.7 ± 16.5%.

**Q.** What about the inhibition in vivo at 0.2 mg [2] of the same compound?
**A.** Its inhibition in vivo at 0.2 mg is 23.1 ± 6.79%.

**Q.** For `CC(C)=CCC/C(C)=C/CC/C(C)=C/CSC[C@H](Nc1ncccn1)C(=O)O` [Compound J], which inhibition in vivo at 0.2 mg (TPA-treated ears of mice [1]) is on record?
**A.** The inhibition in vivo at 0.2 mg was 1.89 ± 7.75%.

**Q.** Which results are given for `CC(C)=CCC/C(C)=C/CC/C(C)=C/CSC[C@H](NC(=O)N1CCNC1=O)C(=O)O` [Compound G]?
**A.** inhibition in vivo at 0.8 mg (TPA-treated ears of mice [1]): 13.4%; inhibition in vivo at 0.8 mg [2]: 58%

**Q.** For `CC(=O)N[C@@H](CSC/C=C(\C)CC/C=C(\C)CCC=C(C)C)C(=O)O` [AFC, N-acetyl-S-farnesyl-L-cysteine], which “effect on dermal inflammation” value (dermal inflammation) is on record?
**A.** Its value is “effectively reduces dermal inflammation”.

**Q.** What about the “inhibition of isoprenyl-S-cysteinyl methyltransferase (mode)” value [3] of the same compound?
**A.** The value was “competitive inhibitor”.

**Q.** Which results are given for `CNC(=S)N[C@@H](CSC/C=C(\C)CC/C=C(\C)CCC=C(C)C)C(=O)O` [Compound A]?
**A.** inhibition in vivo at 0.2 mg (TPA-treated ears of mice [1]): 8.55 ± 3.7%; inhibition in vivo at 0.2 mg [2]: 8.8 ± 6.29%

**Q.** With `CC/N=C(\NCC)N[C@@H](CSC/C=C(\C)CC/C=C(\C)CCC=C(C)C)C(=O)O` [Compound B] as the compound, how does the “% Inhibition Erythema” value (TPA-treated ears of mice [4]) read?
**A.** The value was 0.51 ± 10.81 — %.
